In patent publication US20200223889A1, “Bicyclic Compounds Capable of Binding to Melanocortin 4 Receptor” (Novo Nordisk A/S, priority 2017, published 2020):
Like-named read-outs stand apart in the source and are kept apart here. Starred links: 1 amine or outer side, 2 acyl side, 3 side chain; linkers in the order of their positions; H or OH if unused. Positions of bridges follow the written chain, without caps; N, C: chain ends. Non-standard residues stand in square brackets, D forms with d. Residues, ends and D or L forms follow the SMILES beside them. Lys(CH2CO2H)2 = N[C@@H](CCCCN(CC(=O)O)CC(=O)O)C(=O)O; Phe(3,4-(OMe)2) = COc1ccc(C[C@H](N)C(=O)O)cc1OC; Hyp = O=C(O)[C@@H]1C[C@@H](O)CN1; Cit = NC(=O)NCCC[C@H](N)C(=O)O; Thz = O=C(O)[C@@H]1CSCN1; CH2 = C([*:1])[*:2]

Tests used:
human MC1R = target: T1, human MC1R (Homo sapiens, UniProt Q01726); assay: Functional cAMP assay (CisBio HTRF) in BHK cells expressing human MC1R; type: cell-based
T1 construct: expressed in transfected cells
Experimental: In order to assess the potency of the compounds on human MC1R and human MC4R cAMP signalling was measured.
cAMP induction was measured by c-AMPdynamic2 assay, HTRF 62AM4PEC system from CisBio for the human MC1R and human MC4R according to the protocol provided by the vendor. BHK cells expressing the human MC1 or MC4 receptor were generated by stable transfection with expression vectors encoding the cDNA of either MC1R or MC4R.
In details; 25 μl compound—or standard solution were added in the respective wells. Compound was reconstituted in buffer (DMEM w/o phenol red, 10 mM
Hepes, lx Glutamine, 0.1% OV-albumin1, 1 mM IBMX) and serially diluted starting at 2 μM, 10-fold seven times. Dilutions were carried out in the same aforementioned buffer to the desired working concentration ranges (2× higher than the final concentration). 25 μl cell solution was then added and allowed to incubate for 30 min while lightly shaking, at 25° C. […] The provided components for the assay were reconstituted according to the CisBio assay protocol “3.1 supplied reagents and preparation procedure” in MilliQ purification system H2O and diluted 1:20 in lysis buffer. 25 μl cAMP-d2 and 25 μl Cryptate conjugate were added to all wells.
Plates were centrifuged at 1500 rpm for 30 sec and incubated for 1 h, lightly shaking, at 25° C. in a hotel stacker. The plates were read on Mithras LB 940 provided by Berthold Technologies The data were analysed by non-linear regression analysis of binding curves, using the Windows™ program GraphPad™ Prism (GraphPad Software, USA).
The latter is used when no full curve can be obtained in the concentration ranges indicated above.

human MC4R = target: T2, human MC4R (Homo sapiens, UniProt P32245); assay: Functional cAMP assay (CisBio HTRF) in BHK cells expressing human MC4R; type: cell-based; conditions: for MC1R/MC4R cAMP EC50 ratio: MC1R cAMP EC50 divided by MC4R cAMP EC50
T2 construct: expressed in transfected cells
Method in brief: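 Compound working solutions, 10-fold dilutions from 2 μM at twice final strength, in buffer containing 1 mM IBMX, were incubated 30 min at 25 °C with BHK cells stably carrying human MC4R or MC1R. Accumulated cAMP was then detected by competitive HTRF after 1 h at 25 °C and fitted by non-linear regression.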

[1] = BHK cells expressing human MC1R, '>' = highest dose used with no response, read-out: MC1R cAMP EC50
[2] = BHK cells expressing human MC4R, '>' = highest dose used with no response, read-out: MC4R cAMP EC50

T2 sequence (P32245 whole entry): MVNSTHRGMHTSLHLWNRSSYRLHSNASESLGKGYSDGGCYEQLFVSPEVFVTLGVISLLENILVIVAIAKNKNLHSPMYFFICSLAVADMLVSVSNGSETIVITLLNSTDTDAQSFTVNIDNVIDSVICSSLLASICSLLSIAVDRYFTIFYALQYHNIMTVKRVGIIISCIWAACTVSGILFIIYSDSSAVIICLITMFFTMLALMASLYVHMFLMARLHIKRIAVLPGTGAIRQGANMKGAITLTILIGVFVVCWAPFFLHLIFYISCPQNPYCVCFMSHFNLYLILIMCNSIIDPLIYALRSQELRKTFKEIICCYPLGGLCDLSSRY
T1 sequence (Q01726 whole entry): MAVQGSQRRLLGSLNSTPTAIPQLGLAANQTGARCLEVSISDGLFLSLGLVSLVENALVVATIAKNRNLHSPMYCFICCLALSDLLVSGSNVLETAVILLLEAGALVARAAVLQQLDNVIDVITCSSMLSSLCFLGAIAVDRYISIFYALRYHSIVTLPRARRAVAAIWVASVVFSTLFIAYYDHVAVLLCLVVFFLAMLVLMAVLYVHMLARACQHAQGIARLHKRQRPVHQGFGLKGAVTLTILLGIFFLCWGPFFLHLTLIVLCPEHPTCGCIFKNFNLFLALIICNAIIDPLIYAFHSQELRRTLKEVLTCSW

| Structure (SMILES) | EC50 (human MC1R; [1]) | MC1R/MC4R cAMP EC50 ratio (human MC4R) | EC50 (human MC4R; [2]) | EC50 (human MC1R) | EC50 (human MC4R) |
| --- | --- | --- | --- | --- | --- |
| C[C@@H]1NC(=O)[C@@H]2CSSC[C@H](NC(=O)[C@H](Cc3c[nH]c4ccccc34)NC(=O)[C@H](CCCNC(=N)N)NC(=O)[C@@H](Cc3ccccc3)NC(=O)[C@@H]3C[C@@H](O)CN3C1=O)C(=O)N[C@@H](C)C(=O)N1C[C@H](O)C[C@H]1C(=O)N[C@H](Cc1ccccc1)C(=O)N[C@@H](CCCNC(=N)N)C(=O)N[C@@H](Cc1c[nH]c3ccccc13)C(=O)N2 [Chem. 14, c[c[Cys-Ala-Hyp-D-Phe-Arg-Trp- Cys]-Ala-Hyp-D-Phe-Arg-Trp]] (cyclo(A[Hyp][dF]RWCA[Hyp][dF]RWC); disulfide 6-12) | > 10 nM | >3 |  |  |  |
| C[C@@H]1NC(=O)[C@@H]2CSSC[C@H](NC(=O)[C@H](Cc3c[nH]c4ccccc34)NC(=O)[C@H](CCCN)NC(=O)[C@@H](Cc3ccccc3)NC(=O)[C@H](Cc3c[nH]cn3)NC1=O)C(=O)N[C@@H](C)C(=O)N[C@@H](Cc1c[nH]cn1)C(=O)N[C@H](Cc1ccccc1)C(=O)N[C@@H](CCCN)C(=O)N[C@@H](Cc1c[nH]c3ccccc13)C(=O)N2 [Chem. 16, c[c[Cys-Ala-His-D-Phe-Orn-Trp-Cys]- Ala-His-D-Phe-Orn-Trp]] | > 1 nM | >5 | 0.21 nM |  |  |
| C[C@@H]1NC(=O)[C@@H]2CSSC[C@H](NC(=O)[C@H](Cc3c[nH]c4ccccc34)NC(=O)[C@H](CCCNC(N)=O)NC(=O)[C@@H](Cc3ccccc3)NC(=O)[C@H](Cc3c[nH]cn3)NC1=O)C(=O)N[C@@H](C)C(=O)N[C@@H](Cc1c[nH]cn1)C(=O)N[C@H](Cc1ccccc1)C(=O)N[C@@H](CCCNC(N)=O)C(=O)N[C@@H](Cc1c[nH]c3ccccc13)C(=O)N2 [Chem. 19, c[c[Cys-Ala-His-D-Phe-Cit-Trp-Cys]- Ala-His-D-Phe-Cit-Trp]] | > 1 nM | >8 | 0.13 nM |  |  |
| C[C@@H]1NC(=O)[C@@H]2CSCSC[C@H](NC(=O)[C@H](Cc3c[nH]c4ccccc34)NC(=O)[C@H](CCCNC(=N)N)NC(=O)[C@@H](Cc3ccccc3)NC(=O)[C@@H]3C[C@@H](O)CN3C1=O)C(=O)N[C@@H](C)C(=O)N1C[C@H](O)C[C@H]1C(=O)N[C@H](Cc1ccccc1)C(=O)N[C@@H](CCCNC(=N)N)C(=O)N[C@@H](Cc1c[nH]c3ccccc13)C(=O)N2 [Chem. 23, c[c[Cys-Ala-Hyp-D-Phe-Arg-Trp- Cys]-Ala-Hyp-D-Phe-Arg-Trp]] (cyclo(A[Hyp][dF]RWCA[Hyp][dF]RWC); linker 6-12 via CH2) | > 10 nM | >3 |  |  |  |
| N=C(N)NCCC[C@@H]1NC(=O)[C@@H](Cc2ccccc2)NC(=O)[C@@H]2C[C@@H](O)CN2C(=O)[C@@H]2CSSC[C@H](NC(=O)[C@H](Cc3c[nH]c4ccccc34)NC1=O)C(=O)N1C[C@H](O)C[C@H]1C(=O)N[C@H](Cc1ccccc1)C(=O)N[C@@H](CCCNC(=N)N)C(=O)N[C@@H](Cc1c[nH]c3ccccc13)C(=O)N2 [Chem. 27, c[c[Cys-Hyp-D-Phe-Arg-Trp-Cys]- Hyp-D-Phe-Arg-Trp]] (cyclo(C[Hyp][dF]RWC[Hyp][dF]RW); disulfide 1-6) | 50.9 nM | 212 | 0.24 nM |  |  |
| C[C@@H]1NC(=O)[C@@H]2CSSC[C@H](NC(=O)[C@H](Cc3c[nH]c4ccccc34)NC(=O)[C@H](CCCNC(N)=O)NC(=O)[C@@H](Cc3ccccc3)NC(=O)[C@H](Cc3c[nH]cn3)NC1=O)C(=O)N[C@@H](C)C(=O)N[C@@H](CCC(=O)O)C(=O)N[C@@H](CCC(=O)O)C(=O)N[C@@H](CCC(=O)O)C(=O)N[C@@H](Cc1c[nH]c3ccccc13)C(=O)N2 [Chem. 45, c[c[Cys-Ala-His-D-Phe-Cit-Trp-Cys]- Ala-Glu-Glu-Glu-Trp]] (cyclo(AEEEWCAH[dF][Cit]WC); disulfide 6-12) | > 100 nM | >2 |  |  |  |
| N=C(N)NCCC[C@@H]1NC(=O)[C@@H](Cc2ccccc2)NC(=O)[C@H](Cc2c[nH]cn2)NC(=O)[C@@H]2CSSC[C@H](NC(=O)[C@H](Cc3c[nH]c4ccccc34)NC1=O)C(=O)N[C@@H](Cc1c[nH]cn1)C(=O)N[C@H](Cc1ccccc1)C(=O)N[C@@H](CCCNC(=N)N)C(=O)N[C@@H](Cc1c[nH]c3ccccc13)C(=O)N2 [Chem. 49, c[c[Cys-His-D-Phe-Arg-Trp-Cys]-His- D-Phe-Arg-Trp]] (cyclo(CH[dF]RWCH[dF]RW); disulfide 1-6) |  | >4 |  | > 5.5 nM |  |
| O=C(O)CC[C@@H]1NC(=O)[C@@H]2CSSC[C@H](NC(=O)[C@H](Cc3c[nH]c4ccccc34)NC(=O)[C@H](Cc3c[nH]cn3)NC(=O)[C@@H](Cc3ccccc3)NC(=O)[C@H](Cc3c[nH]cn3)NC1=O)C(=O)N[C@@H](CCC(=O)O)C(=O)N[C@@H](Cc1c[nH]cn1)C(=O)N[C@H](Cc1ccccc1)C(=O)N[C@@H](Cc1c[nH]cn1)C(=O)N[C@@H](Cc1c[nH]c3ccccc13)C(=O)N2 [Chem. 53, c[c[Cys-Glu-His-D-Phe-His-Trp-Cys]- Glu-His-D-Phe-His-Trp]] (cyclo(CEH[dF]HWCEH[dF]HW); disulfide 1-7) | > 10 nM | >1 |  |  |  |
| COc1ccc(C[C@@H]2NC(=O)[C@H](CCCNC(=N)N)NC(=O)[C@@H](Cc3ccccc3)NC(=O)[C@H](Cc3c[nH]cn3)NC(=O)[C@H](C)NC(=O)[C@@H]3CSSC[C@H](NC2=O)C(=O)N[C@@H](C)C(=O)N[C@@H](CCCCN)C(=O)N[C@@H](CCCCN)C(=O)N[C@@H](CCCCN)C(=O)N[C@@H](Cc2c[nH]c4ccccc24)C(=O)N3)cc1OC [Chem. 67, c[c[Cys-Ala-His-D-Phe-Arg-3,4- DiMeo-Phe-Cys]-Ala-Lys-Lys-Lys- Trp]] (cyclo(AH[dF]R[Phe(3,4-(OMe)2)]CAKKKWC); disulfide 6-12) | > 55 nM | >18 |  |  |  |
| O=C1N[C@H]2CSSC[C@H](NC(=O)[C@H](Cc3c[nH]c4ccccc34)NC(=O)[C@H](Cc3c[nH]cn3)NC(=O)[C@@H](Cc3ccccc3)NC(=O)[C@H](Cc3c[nH]cn3)NC(=O)[C@@H]3CSCN3C2=O)C(=O)N2CSC[C@H]2C(=O)N[C@@H](Cc2c[nH]cn2)C(=O)N[C@H](Cc2ccccc2)C(=O)N[C@@H](Cc2c[nH]cn2)C(=O)N[C@H]1Cc1c[nH]c2ccccc12 [Chem. 91, c[c[Cys-THAZ-His-D-Phe-His-Trp- Cys]-THAZ-His-D-Phe-His-Trp]] (cyclo(C[Thz]H[dF]HWC[Thz]H[dF]HW); disulfide 1-7) |  | >14 |  | > 10 nM |  |
| C[C@@H]1NC(=O)[C@H](C)NC(=O)[C@@H]2CSSC[C@H](NC(=O)[C@H](Cc3c[nH]c4ccccc34)NC(=O)[C@H](C)NC(=O)[C@H](CCCCN(CC(=O)O)CC(=O)O)NC1=O)C(=O)N1CSC[C@H]1C(=O)N[C@@H](Cc1c[nH]cn1)C(=O)N[C@H](Cc1ccccc1)C(=O)N[C@@H](Cc1c[nH]cn1)C(=O)N[C@@H](Cc1c[nH]c3ccccc13)C(=O)N2 [Chem. 104, c[c[Cys-THAZ-His-D-Phe-His-Trp- Cys]-Ala-Ala-Lys(CH2COOH)2-Ala- Trp]] (cyclo(AA[Lys(CH2CO2H)2]AWC[Thz]H[dF]HWC); disulfide 6-12) |  | 167 |  | > 100 nM | 0.6 nM |
| C[C@@H]1NC(=O)[C@H](CCC(=O)O)NC(=O)[C@H](CCC(=O)O)NC(=O)[C@H](C)NC(=O)[C@@H]2CSSC[C@H](NC(=O)[C@H](Cc3c[nH]c4ccccc34)NC1=O)C(=O)N1CSC[C@H]1C(=O)N[C@@H](Cc1c[nH]cn1)C(=O)N[C@H](Cc1ccccc1)C(=O)N[C@@H](Cc1c[nH]cn1)C(=O)N[C@@H](Cc1c[nH]c3ccccc13)C(=O)N2 [Chem. 105, c[c[Cys-THAZ-His-D-Phe-His-Trp- Cys]-Ala-Glu-Glu-Ala-Trp]] (cyclo(AEEAWC[Thz]H[dF]HWC); disulfide 6-12) |  | >15 |  | > 100 nM |  |
| C[C@@H]1NC(=O)[C@H](CC(=O)O)NC(=O)[C@H](CC(=O)O)NC(=O)[C@H](C)NC(=O)[C@@H]2CSSC[C@H](NC(=O)[C@H](Cc3c[nH]c4ccccc34)NC1=O)C(=O)N1CSC[C@H]1C(=O)N[C@@H](Cc1c[nH]cn1)C(=O)N[C@H](Cc1ccccc1)C(=O)N[C@@H](Cc1c[nH]cn1)C(=O)N[C@@H](Cc1c[nH]c3ccccc13)C(=O)N2 [Chem. 106, c[c[Cys-THAZ-His-D-Phe-His-Trp- Cys]-Ala-Asp-Asp-Ala-Trp]] (cyclo(ADDAWC[Thz]H[dF]HWC); disulfide 6-12) |  | >10 |  | > 100 nM | 10.6 nM |
